Experimental data: patent US8952024B2, “Herbicidal pyrimidone derivatives” (E I du Pont de Nemours and Company, priority 2009, dated 2015)

Key:
Format in all cases: in vivo
[1] = test system: barnyardgrass (Echinochloa crus-galli); experiment: Test A pre-/postemergence plant response
Text: (§1) Seeds of barnyardgrass (Echinochloa crus-galli), large crabgrass (Digitaria sanguinalis), giant foxtail (Setaria faberii), morningglory (Ipomoea spp.), pigweed (Amaranthus retroflexus), velvetleaf (Abutilon theophrasti), wheat (Triticum aestivum) and corn (Zea mays) were planted into a blend of loam soil and sand and treated preemergence with a directed soil spray using test chemicals formulated in a non-phytotoxic solvent mixture which included a surfactant. At the same time these species were also treated with postemergence applications of test compounds formulated in the same manner.
(§2) Plants ranged in height from two to ten cm and were in the one- to two-leaf stage for the postemergence treatment. Treated plants and untreated controls were maintained in a greenhouse for approximately ten days, after which time all treated plants were compared to untreated controls and visually evaluated for injury. Plant response ratings, summarized in Table A, are based on a 0 to 100 scale where 0 is no effect and 100 is complete control. A dash (-) response means no test result.

corn (Zea mays) = experiment: Test A pre-/postemergence plant response
Text: as §1, §2

[2] = test system: giant foxtail (Setaria faberii); experiment: Test A pre-/postemergence plant response
Text: as §1, §2

[3] = test system: large crabgrass (Digitaria sanguinalis); experiment: Test A pre-/postemergence plant response
Text: as §1, §2

[4] = test system: morningglory (Ipomoea spp.); experiment: Test A pre-/postemergence plant response
Text: as §1, §2

[5] = test system: pigweed (Amaranthus retroflexus); experiment: Test A pre-/postemergence plant response
Text: as §1, §2

[6] = test system: velvetleaf (Abutilon theophrasti); experiment: Test A pre-/postemergence plant response
Text: as §1, §2

[7] = test system: wheat (Triticum aestivum); experiment: Test A pre-/postemergence plant response
Text: as §1, §2

[8] = test system: barnyardgrass (Echinochloa crus-galli); experiment: Test B flooded paddy test; details: for Plant response rating, Barnyardgrass: Flood (flooded paddy test), 13 to 15 days; for Plant response rating, Flood, Barnyardgrass: 250 g ai/ha, flooded paddy test, visual rating on 0 to 100 scale (0 no effect, 100 complete control) after 13 to 15 days
Text: (§3) Plant species in the flooded paddy test consisted of rice (Oryza sativa), umbrella sedge (Cyperus difformis), ducksalad (Heteranthera limosa) and barnyardgrass (Echinochloa crus-galli) grown to the 2-leaf stage for testing. At the time of treatment, test pots were flooded with water to 3 cm above the soil surface, treated by application of test compounds directly to the paddy water, and then maintained at that water depth for the duration of the test.
(§4) Treated plants and controls were maintained in a greenhouse for 13 to 15 days, after which time all treated plants were visually evaluated and compared to controls. Plant response ratings, summarized in Table B, are based on a scale of 0 to 100 where 0 is no effect and 100 is complete control. A dash (-) response means no test result.

[9] = test system: ducksalad (Heteranthera limosa); experiment: Test B flooded paddy test; details: for Plant response rating, Ducksalad: Flood (flooded paddy test), 13 to 15 days; for Plant response rating, Flood, Ducksalad: 250 g ai/ha, flooded paddy test, visual rating on 0 to 100 scale (0 no effect, 100 complete control) after 13 to 15 days
Text: as §3, §4

rice (Oryza sativa) = experiment: Test B flooded paddy test; details: for Plant response rating, Rice: Flood (flooded paddy test), 13 to 15 days; for Plant response rating, Flood, Rice: 250 g ai/ha, flooded paddy test, visual rating on 0 to 100 scale (0 no effect, 100 complete control) after 13 to 15 days
Text: as §3, §4

[10] = test system: umbrella sedge (Cyperus difformis); experiment: Test B flooded paddy test; details: for Plant response rating, Sedge, Umbrella: Flood (flooded paddy test), 13 to 15 days; for Plant response rating, Flood, Sedge, Umbrella: 250 g ai/ha, flooded paddy test, visual rating on 0 to 100 scale (0 no effect, 100 complete control) after 13 to 15 days
Text: as §3, §4

[11] = Postemergence, 125 g ai/ha, 0 to 100 scale where 0 is no effect and 100 is complete control
[12] = Postemergence, 500 g ai/ha, visual injury, 0 to 100 scale (0 no effect, 100 complete control), approx. ten days
[13] = Preemergence, 125 g ai/ha, 0 to 100 scale, 0 = no effect, 100 = complete control
[14] = Preemergence, 500 g ai/ha, 0 to 100 scale, 0 = no effect, 100 = complete control
[15] = 125 g ai/ha, scale 0 to 100, 0 is no effect, 100 is complete control
[16] = Flood, 31 g ai/ha, scale 0 to 100 (0 no effect, 100 complete control)
[17] = Postemergence, 125 g ai/ha, visual injury, 0 to 100 scale (0 no effect, 100 complete control), approx. ten days
[18] = Postemergence, 500 g ai/ha, 0 to 100 scale, 0 = no effect, 100 = complete control, approx. ten days
[19] = Preemergence, 500 g ai/ha, visual injury, 0 to 100 scale (0 no effect, 100 complete control), approx. ten days
[20] = 62 g ai/ha, scale 0 to 100, 0 is no effect, 100 is complete control
[21] = 62 g ai/ha, scale of 0 to 100 where 0 is no effect and 100 is complete control

Cc1cc(F)ccc1-n1c(-c2cccc(Cl)c2)ncc(C(=O)C2=C(O)CCCC2=O)c1=O [Compound 167]
Plant response rating, Barnyardgrass [1, 11]: 60
Barnyardgrass plant response rating [1, 12]: 100
Plant response rating, Barnyardgrass [1, 13]: 0
Plant response rating, Barnyardgrass [1, 14]: 30
Plant response rating, Corn (corn (Zea mays); [11]): 30
Corn plant response rating (corn (Zea mays); [12]): 30
Plant response rating, Corn (corn (Zea mays); [13]): 0
Plant response rating, Corn (corn (Zea mays); [14]): 0
Plant response rating, Foxtail, Giant [2, 11]: 90
Foxtail, Giant plant response rating [2, 12]: 90
Plant response rating, Foxtail, Giant [2, 13]: 10
Plant response rating, Foxtail, Giant [2, 14]: 50
Plant response rating, Crabgrass, Large [3, 11]: 60
Crabgrass, Large plant response rating [3, 12]: 90
Plant response rating, Crabgrass, Large [3, 13]: 20
Plant response rating, Crabgrass, Large [3, 14]: 90
Plant response rating, Morningglory [4, 11]: 60
Morningglory plant response rating [4, 12]: 100
Plant response rating, Morningglory [4, 13]: 0
Plant response rating, Morningglory [4, 14]: 0
Plant response rating, Pigweed [5, 11]: 90
Pigweed plant response rating [5, 12]: 100
Plant response rating, Pigweed [5, 13]: 10
Plant response rating, Pigweed [5, 14]: 90
Plant response rating, Velvetleaf [6, 11]: 100
Velvetleaf plant response rating [6, 12]: 100
Plant response rating, Velvetleaf [6, 13]: 70
Plant response rating, Velvetleaf [6, 14]: 100
Plant response rating, Wheat [7, 11]: 0
Wheat plant response rating [7, 12]: 0
Plant response rating, Wheat [7, 13]: 0
Plant response rating, Wheat [7, 14]: 0
Plant response rating, Barnyardgrass [8, 15]: 20
Barnyardgrass plant response rating [8, 16]: 0
Plant response rating, Ducksalad [9, 15]: 70
Ducksalad plant response rating [9, 16]: 0
Plant response rating, Rice (rice (Oryza sativa); [15]): 0
Rice plant response rating (rice (Oryza sativa); [16]): 0
Plant response rating, Sedge, Umbrella [10, 15]: 60
Sedge, Umbrella plant response rating [10, 16]: 20

O=C1CCCC(O)=C1C(=O)c1cnc(-c2ccc(Cl)cc2)n(-c2ccccc2)c1=O [Compound 25]
Barnyardgrass plant response rating [1, 17]: 30
Plant response rating, Barnyardgrass [1, 18]: 90
Plant response rating, Barnyardgrass [1, 13]: 20
Plant response rating, Barnyardgrass [1, 19]: 80
Corn plant response rating (corn (Zea mays); [17]): 0
Plant response rating, Corn (corn (Zea mays); [18]): 20
Plant response rating, Corn (corn (Zea mays); [13]): 0
Plant response rating, Corn (corn (Zea mays); [19]): 0
Foxtail, Giant plant response rating [2, 17]: 50
Plant response rating, Foxtail, Giant [2, 18]: 90
Plant response rating, Foxtail, Giant [2, 13]: 50
Plant response rating, Foxtail, Giant [2, 19]: 90
Crabgrass, Large plant response rating [3, 17]: 40
Plant response rating, Crabgrass, Large [3, 18]: 90
Plant response rating, Crabgrass, Large [3, 13]: 60
Plant response rating, Crabgrass, Large [3, 19]: 100
Morningglory plant response rating [4, 17]: 50
Plant response rating, Morningglory [4, 18]: 90
Plant response rating, Morningglory [4, 13]: 0
Plant response rating, Morningglory [4, 19]: 60
Pigweed plant response rating [5, 17]: 80
Plant response rating, Pigweed [5, 18]: 100
Plant response rating, Pigweed [5, 13]: 50
Plant response rating, Pigweed [5, 19]: 80
Velvetleaf plant response rating [6, 17]: 100
Plant response rating, Velvetleaf [6, 18]: 100
Plant response rating, Velvetleaf [6, 13]: 80
Plant response rating, Velvetleaf [6, 19]: 100
Wheat plant response rating [7, 17]: 0
Plant response rating, Wheat [7, 18]: 0
Plant response rating, Wheat [7, 13]: 0
Plant response rating, Wheat [7, 19]: 20
Plant response rating, Flood, Barnyardgrass [8]: 0
Plant response rating, Barnyardgrass [8, 20]: 0
Plant response rating, Flood, Ducksalad [9]: 0
Plant response rating, Ducksalad [9, 20]: 0
Plant response rating, Flood, Rice (rice (Oryza sativa)): 0
Plant response rating, Rice (rice (Oryza sativa); [20]): 0
Plant response rating, Flood, Sedge, Umbrella [10]: 0
Plant response rating, Sedge, Umbrella [10, 20]: 0

Cc1ccc(-n2c(-c3ccccc3)ncc(C(=O)C3=C(O)CCCC3=O)c2=O)c(Cl)c1 [Compound 41]
Barnyardgrass plant response rating [1, 17]: 50
Plant response rating, Barnyardgrass [1, 18]: 90
Plant response rating, Barnyardgrass [1, 13]: 0
Plant response rating, Barnyardgrass [1, 19]: 80
Corn plant response rating (corn (Zea mays); [17]): 0
Plant response rating, Corn (corn (Zea mays); [18]): 10
Plant response rating, Corn (corn (Zea mays); [13]): 0
Plant response rating, Corn (corn (Zea mays); [19]): 0
Foxtail, Giant plant response rating [2, 17]: 20
Plant response rating, Foxtail, Giant [2, 18]: 80
Plant response rating, Foxtail, Giant [2, 13]: 10
Plant response rating, Foxtail, Giant [2, 19]: 30
Crabgrass, Large plant response rating [3, 17]: 20
Plant response rating, Crabgrass, Large [3, 18]: 70
Plant response rating, Crabgrass, Large [3, 13]: 20
Plant response rating, Crabgrass, Large [3, 19]: 80
Morningglory plant response rating [4, 17]: 10
Plant response rating, Morningglory [4, 18]: 70
Plant response rating, Morningglory [4, 13]: 0
Plant response rating, Morningglory [4, 19]: 20
Pigweed plant response rating [5, 17]: 100
Plant response rating, Pigweed [5, 18]: 100
Plant response rating, Pigweed [5, 13]: 90
Plant response rating, Pigweed [5, 19]: 90
Velvetleaf plant response rating [6, 17]: 100
Plant response rating, Velvetleaf [6, 18]: 100
Plant response rating, Velvetleaf [6, 13]: 30
Plant response rating, Velvetleaf [6, 19]: 80
Wheat plant response rating [7, 17]: 0
Plant response rating, Wheat [7, 18]: 0
Plant response rating, Wheat [7, 13]: 0
Plant response rating, Wheat [7, 19]: 0
Plant response rating, Flood, Barnyardgrass [8]: 30
Plant response rating, Barnyardgrass [8, 20]: 0
Plant response rating, Flood, Ducksalad [9]: 75
Plant response rating, Ducksalad [9, 20]: 70
Plant response rating, Flood, Rice (rice (Oryza sativa)): 0
Plant response rating, Rice (rice (Oryza sativa); [20]): 0
Plant response rating, Flood, Sedge, Umbrella [10]: 80
Plant response rating, Sedge, Umbrella [10, 20]: 70

O=C1CCCC(O)=C1C(=O)c1cnc(-c2cccc(Br)c2)n(C2CCCCC2)c1=O [Compound 206]
Plant response rating, Barnyardgrass [1, 11]: 90
Barnyardgrass plant response rating [1, 12]: 100
Plant response rating, Barnyardgrass [1, 13]: 0
Plant response rating, Barnyardgrass [1, 14]: 20
Plant response rating, Corn (corn (Zea mays); [11]): 0
Corn plant response rating (corn (Zea mays); [12]): 0
Plant response rating, Corn (corn (Zea mays); [13]): 0
Plant response rating, Corn (corn (Zea mays); [14]): 0
Plant response rating, Foxtail, Giant [2, 11]: 50
Foxtail, Giant plant response rating [2, 12]: 90
Plant response rating, Foxtail, Giant [2, 13]: 0
Plant response rating, Foxtail, Giant [2, 14]: 60
Plant response rating, Crabgrass, Large [3, 11]: 60
Crabgrass, Large plant response rating [3, 12]: 100
Plant response rating, Crabgrass, Large [3, 13]: 10
Plant response rating, Crabgrass, Large [3, 14]: 60
Plant response rating, Morningglory [4, 11]: 100
Morningglory plant response rating [4, 12]: 100
Plant response rating, Morningglory [4, 13]: 0
Plant response rating, Morningglory [4, 14]: 0
Plant response rating, Pigweed [5, 11]: 90
Pigweed plant response rating [5, 12]: 100
Plant response rating, Pigweed [5, 13]: 30
Plant response rating, Pigweed [5, 14]: 80
Plant response rating, Velvetleaf [6, 11]: 100
Velvetleaf plant response rating [6, 12]: 100
Plant response rating, Velvetleaf [6, 13]: 0
Plant response rating, Velvetleaf [6, 14]: 60
Plant response rating, Wheat [7, 11]: 0
Wheat plant response rating [7, 12]: 0
Plant response rating, Wheat [7, 13]: 0
Plant response rating, Wheat [7, 14]: 0
Plant response rating, Flood, Barnyardgrass [8]: 0
Plant response rating, Barnyardgrass [8, 21]: 0
Plant response rating, Flood, Ducksalad [9]: 90
Plant response rating, Ducksalad [9, 21]: 70
Plant response rating, Flood, Rice (rice (Oryza sativa)): 20
Plant response rating, Rice (rice (Oryza sativa); [21]): 0
Plant response rating, Flood, Sedge, Umbrella [10]: 85
Plant response rating, Sedge, Umbrella [10, 21]: 60
